From patent US8410289B2, “Spirocyclic 3'-alkoxytetramic acids and-tetronic acids” (Bayer Cropscience AG, priority 2004, dated 2013)

Key:
Summer wheat = assay: Herbicidal post-emergence action with/without safener (Example H, container trials with cereals, greenhouse or outdoors); format: in vivo
Method: (§1) Herbicidal Post-Emergence Action
(§2) Seeds of monocotyledonous and dicotyledonous weed and crop plants are placed into sandy loam in wood fibre pots or in plastic pots, covered with soil and cultivated in a greenhouse, during the vegetation period also outdoors outside of the greenhouse, under good growth conditions. 2-3 weeks after sowing, the test plants are treated at the one- to three-leaf stage. The test compounds, formulated as wettable powders (WP) or emulsifiable concentrates (EC) are, in various dosages with a water application rate of 300 l/ha (converted), with wetting agent (0.2 to 0.3%) added, sprayed onto the plants and the surface of the soil. 3-4 weeks after the treatment of the test plants, the effect of the preparations is rated visually in comparison to untreated controls (herbicidal effect in per cent (%): 100%=the plants have died, 0% effect=like control plants).
(§3) If it is additionally to be tested as to whether safeners can improve the crop plant compatibility of test substances in the case of crop plants, the following options are used for applying the safener: • seeds of the crop plants are, before sowing, dressed with the safener substance (the amount of safener stated in per cent, based on the weight of the seed) • before the application of the test substances, the crop plants are sprayed with the safener at a certain application rate per hectare (usually 1 day before the application of the test substances) • the safener is applied together with the test substance as a tank mix (the amount of safener is stated in g/ha or as a ratio, based on the herbicide).
(§4) By comparing the effect of the test substances on crop plants without or with safener treatment, it is possible to assess the effect of the safener substance.

maize = assay: Herbicidal post-emergence action with/without safener (Example H, container trials with maize in a greenhouse); format: in vivo; conditions: 12.5 g of a.i./ha, without safener
Method: as §1
as §2, with “plants). […]” for “plants).”

barley = assay: Herbicidal post-emergence action with/without safener (Example H, container trials with cereals, greenhouse or outdoors); format: in vivo
Method: as §1, §2, §3, §4

[1] = log P determination by HPLC on reverse-phase column (C 18), EEC-Directive 79/831 Annex V.A8; format: physicochemical
Method: • The log P values given in the tables and preparation examples above are determined in accordance with EEC-Directive 79/831 Annex V.A8 by HPLC (High Performance Liquid Chromatography) on a reverse-phase column (C 18). Temperature: 43° C.
The determination is carried out in the acidic range at pH 2.3 using the mobile phases 0.1% aqueous phosphoric acid and acetonitrile; linear gradient from 10% acetonitrile to 95% acetonitrile.
The LC-MS determination in the acidic range is carried out at pH 2.7 using the mobile phases 0.1% aqueous formic acid and acetonitrile (contains 0.1% formic acid); linear gradient from […] acetonitrile to 95% acetonitrile.
The LC-MS determination in the neutral range is carried out at pH 7.8 using the mobile phases 0.001 molar aqueous ammonium bicarbonate solution and acetonitrile; linear gradient from 10% acetonitrile to 95% acetonitrile.
The calibration is carried out using unbranched alkan-2-ones (with 3 to 16 carbon atoms) with known log P values (determination of the log P values by retention times using linear interpolation between two successive alkanones).

[2] = greenhouse, 6.25 g of a.i./ha, without safener
[3] = greenhouse, 12.5 g of a.i./ha, without safener
[4] = greenhouse, 25 g of a.i./ha, without safener
[5] = greenhouse, 3.125 g of a.i./ha, without safener
[6] = greenhouse, 50 g of a.i./ha, without safener
[7] = outdoors, 100 g of a.i./ha, without safener (tank mix trial), listed as Ex. I-1-a-1
[8] = greenhouse, 100 g of a.i./ha, without safener
[9] = compounds of formula (I-2-a); generally isomer mixtures; those marked 1) were separated into cis and trans diastereomers
[10] = outdoors, 12.5 g of a.i./ha, without safener (trial with mefenpyr 1 day prior)
[11] = outdoors, 25 g of a.i./ha, without safener (tank mix trial)
[12] = outdoors, 25 g of a.i./ha, without safener (trial with mefenpyr 1 day prior)
[13] = outdoors, 50 g of a.i./ha, without safener (tank mix trial)
[14] = outdoors, 50 g of a.i./ha, without safener (trial with mefenpyr 1 day prior)
[15] = outdoors, 100 g of a.i./ha, without safener (tank mix trial), listed as Ex. I-1-a-43
[16] = outdoors, 100 g of a.i./ha, without safener (trial with mefenpyr 1 day prior)
[17] = tank mix post-emergence, 20 g of a.i./ha, without safener
[18] = tank mix post-emergence, 80 g of a.i./ha, without safener

In the case of `CCCCOC1CCCC2(C1)NC(=O)C(c1c(Br)cc(C)cc1CC)=C2O` (single isomer, unassigned) [Example I-1-a-17], the “Summer wheat observed (%)” value (Summer wheat; [2]) is reported as 10%, the “Summer wheat observed (%)” value (Summer wheat; [3]) is reported as 60% and the “Summer wheat observed (%)” value (Summer wheat; [4]) is reported as 70%.

For `CCOC(=O)OC1=C(c2c(Br)cc(C)cc2CC)C(=O)NC12CCCC(OC)C2` (single isomer, unassigned) [Ex. I-1-c-10], the “Cecilia Mais observed (%)” value (maize) was 40% and the “Summer wheat observed (%)” value (Summer wheat; [3]) was 60%.

In the case of `CCCCOC1CCCC2(C1)NC(=O)C(c1c(Br)cc(C)cc1CC)=C2OC(=O)COC` (single isomer, unassigned) [Ex. I-1-b-14], the “Summer wheat observed (%)” value (Summer wheat; [5]) is reported as 20% and the “Summer wheat observed (%)” value (Summer wheat; [2]) is reported as 30%.

In the case of `CCCOC1CCCC2(C1)NC(=O)C(c1c(Br)cc(C)cc1CC)=C2O` (single isomer, unassigned) [Example I-1-a-12], the “Summer barley observed (%)” value (barley; [5]) is reported as 30%, the “Summer barley observed (%)” value (barley; [2]) is reported as 97% and the “Summer barley observed (%)” value (barley; [3]) is reported as 99%. The “Summer wheat observed (%)” value (Summer wheat; [2]) was 10% and the “Summer wheat observed (%)” value (Summer wheat; [3]) was 97%.

In the case of `CCCCOC1CCCC2(C1)NC(=O)C(c1c(Cl)cc(Br)cc1CC)=C2OC(=O)C(C)C` (single isomer, unassigned) [Ex. I-1-b-9], the “Summer barley observed (%)” value (barley; [4]) is reported as 30%, the “Summer barley observed (%)” value (barley; [6]) is reported as 90% and the “Summer wheat observed (%)” value (Summer wheat; [4]) is reported as 20%. For the same molecule, the “Summer wheat observed (%)” value (Summer wheat; [6]) was 90%.

In the case of `COC1CCCC2(C1)NC(=O)C(c1c(C)cc(C)cc1C)=C2O` (mixture of isomers) [Example I-1-a-2], the “Summer wheat observed (%)” value (Summer wheat; container trial in a greenhouse, application rate 100 g of a.i./ha, without safener) is reported as 60%.

With `CCCCOC1CCCC2(C1)NC(=O)C(c1c(C)cc(C)cc1C)=C2O` (centres unmarked) [Example I-1-a-1] the “Summer barley observed (%)” value (barley; [7]) was 70% and the “Summer wheat observed (%)” value (Summer wheat; [7]) was 35%.

For `CCOC1CCCC2(C1)NC(=O)C(c1c(Br)cc(C)cc1CC)=C2O` (single isomer, unassigned) [Example I-1-a-18], the “Summer barley observed (%)” value (barley; [2]) was 50%, the “Summer barley observed (%)” value (barley; [3]) was 93% and the “Summer wheat observed (%)” value (Summer wheat; [5]) was 30%. The “Summer wheat observed (%)” value (Summer wheat; [2]) was 40% and the “Summer wheat observed (%)” value (Summer wheat; [3]) was 95%.

For `CCCOC1CCCC2(C1)NC(=O)C(c1c(C)cc(C)cc1C)=C2O` (single isomer, unassigned) [Example I-1-a-19], the “Summer barley observed (%)” value (barley; [6]) was 25% and the “Summer barley observed (%)” value (barley; [8]) was 30%.

For `CCCCOC1CCCC2(C1)NC(=O)C(c1c(Cl)cc(Br)cc1CC)=C2OC(=O)COC` (single isomer, unassigned) [Ex. I-1-b-8], the “Summer barley observed (%)” value (barley; [4]) was 30%, the “Summer barley observed (%)” value (barley; [6]) was 70% and the “Summer wheat observed (%)” value (Summer wheat; [4]) was 30%. For the same molecule, the “Summer wheat observed (%)” value (Summer wheat; [6]) was 50%.

With `CCc1cc(C)cc(Br)c1C1=C(O)C2(CCCC(OC)C2)NC1=O` (single isomer, unassigned) [Example I-1-a-14] the “Summer barley observed (%)” value (barley; [3]) was 30%, the “Summer barley observed (%)” value (barley; [4]) was 93% and the “Summer wheat observed (%)” value (Summer wheat; [3]) was 30%. The “Summer wheat observed (%)” value (Summer wheat; [4]) was 93%.

In the case of `CCc1cc(C)cc(Br)c1C1=C(OC(=O)C(C)C)C2(CCCC(OC)C2)NC1=O` (single isomer, unassigned) [Ex. I-1-b-11], the “Summer wheat observed (%)” value (Summer wheat; [4]) is reported as 10% and the “Summer wheat observed (%)” value (Summer wheat; [6]) is reported as 70%.

For `CCOC(=O)OC1=C(c2c(Br)cc(C)cc2CC)C(=O)NC12CCCC(OCC)C2` (single isomer, unassigned) [Ex. I-1-c-9], the “Summer wheat observed (%)” value (Summer wheat; [6]) was 30% and the “Summer wheat observed (%)” value (Summer wheat; [8]) was 60%.

`COC1CCCC2(C1)OC(=O)C(c1c(C)cc(Cl)cc1Br)=C2O` (mixture of isomers) [Example I-2-a-4] gave a logP [1, 9] of 2.46.

`COC1CCCC2(C1)OC(=O)C(c1ccccc1Cl)=C2O` (mixture of isomers) [I-2-a-38] showed a logP [1, 9] of 1.86.

For `CCCCOC1CCCC2(C1)NC(=O)C(c1c(C)cc(C)cc1C)=C2O` (single isomer, unassigned) [Example I-1-a-43], the “Summer barley observed (%)” value (barley; [10]) was 10%, the “Summer barley observed (%)” value (barley; [11]) was 40% and the “Summer barley observed (%)” value (barley; [12]) was 70%. For the same molecule, the “Summer barley observed (%)” value (barley; [13]) was 50%, the “Summer barley observed (%)” value (barley; [14]) was 20% and the “Summer barley observed (%)” value (barley; [15]) was 60%. For the same molecule, the “Summer barley observed (%)” value (barley; [16]) was 30%, the “Summer barley (Scarlett) observed (%)” value (barley; [17]) was 30% and the “Winter barley observed (%)” value (barley; [17]) was 20%. For the same molecule, the “Summer barley (Baronesse) observed (%)” value (barley; [18]) was 30%, the “Winter barley observed (%)” value (barley; [18]) was 30% and the “Summer wheat observed (%)” value (Summer wheat; [10]) was 30%. For the same molecule, the “Summer wheat observed (%)” value (Summer wheat; [11]) was 40%, the “Summer wheat observed (%)” value (Summer wheat; [12]) was 60% and the “Summer wheat observed (%)” value (Summer wheat; [13]) was 50%. The “Summer wheat observed (%)” value (Summer wheat; [14]) was 15%, the “Summer wheat observed (%)” value (Summer wheat; [15]) was 60% and the “Summer wheat observed (%)” value (Summer wheat; [16]) was 30%.

Work on `COC1CCCC2(C1)OC(=O)C(c1c(C)cc(Br)c(C)c1Br)=C2O` (mixture of isomers) [Example I-2-a-47] yielded a logP [1, 9] of 2.78.

`COC1CCCC2(C1)OC(=O)C(c1c(C)cc(C)cc1C)=C2OC(=O)C(C)C` (centres unmarked) [Example I-2-b-3] showed a logP ([1]; compounds of formula (I-2-b), isomer (cis, trans or α + β about 1:1), two values for α + β mixtures) of 4.32.

`COC1CCCC2(C1)OC(=O)C(c1c(C)cc(C)cc1C)=C2OC(=O)OC(C)C` (centres unmarked) [Example I-2-c-4] showed a logP ([1]; HPLC reverse-phase C 18, acidic range pH 2.3, 43° C.) of 4.34.

In the case of `COC1CCCC2(C1)OC(=O)C(c1c(Cl)cc(C)cc1Br)=C2O` (centres unmarked) [Example I-2-a-5], the logP [1, 9] is reported as 2.40.
